Columns and labels:
Assay in all cases: SelectScreen Z'LYTE kinase profiling
Assay type in all cases: biochemical
Conditions in all cases: ATP at apparent KM
FGFR1 = FGFR1 (Homo sapiens, UniProt P11362)
Description: (§1) protein kinases at a compound concentration of 1 µM. Measurements were performed in duplicates
(§2) and at the particular apparent ATP KM of each individual kinase employing the activity based Z’LYTE®
(§3) kinase assay of the SelectScreen® Kinase Profiling Services (ThermoFisher Scientific).
(§4) kinases at a compound concentration of 1 µM. Measurements were performed in duplicates and at
(§5) the particular apparent ATP KM of each individual kinase employing the activity based Z’LYTE® kinase
(§6) assay of the SelectScreen® Kinase Profiling Services (ThermoFisher Scientific).

RPS6KA3 (RSK2) = RPS6KA3 (RSK2) (Homo sapiens, UniProt P51812)
Description: as §1, §2, §3, §4, §5, §6

EGFR (ErbB1) = EGFR (ErbB1) (Homo sapiens, UniProt P00533)
Description: as §1, §2, §3, §4, §5, §6

PRKCE (PKC epsilon) = target: T1, PRKCE (PKC epsilon) (Homo sapiens, UniProt Q02156)
T1 sequence (Q02156 1-737): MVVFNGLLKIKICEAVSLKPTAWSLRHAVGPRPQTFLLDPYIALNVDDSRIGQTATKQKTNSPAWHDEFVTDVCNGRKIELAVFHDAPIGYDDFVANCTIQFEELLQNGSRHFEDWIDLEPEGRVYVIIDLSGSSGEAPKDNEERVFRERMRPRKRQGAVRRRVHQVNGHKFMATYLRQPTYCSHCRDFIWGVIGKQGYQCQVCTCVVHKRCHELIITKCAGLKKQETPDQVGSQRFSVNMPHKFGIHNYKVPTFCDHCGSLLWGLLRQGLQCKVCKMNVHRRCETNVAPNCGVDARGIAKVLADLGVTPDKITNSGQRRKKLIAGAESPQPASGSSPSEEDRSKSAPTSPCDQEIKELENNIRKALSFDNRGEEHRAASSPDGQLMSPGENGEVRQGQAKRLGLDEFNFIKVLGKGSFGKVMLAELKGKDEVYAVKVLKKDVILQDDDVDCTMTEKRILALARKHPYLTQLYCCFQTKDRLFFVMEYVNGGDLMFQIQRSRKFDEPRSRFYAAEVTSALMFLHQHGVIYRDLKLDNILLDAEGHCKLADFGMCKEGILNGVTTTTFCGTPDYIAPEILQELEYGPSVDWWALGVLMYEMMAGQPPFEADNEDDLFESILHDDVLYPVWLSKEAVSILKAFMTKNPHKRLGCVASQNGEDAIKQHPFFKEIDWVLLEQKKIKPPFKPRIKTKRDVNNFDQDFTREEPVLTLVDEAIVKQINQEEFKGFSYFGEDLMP
Description: as §1, §2, §3, §4, §5, §6

JAK2 = JAK2 (Homo sapiens, UniProt O60674)
Description: as §1, §2, §3, §4, §5, §6

MARK1 (MARK) = MARK1 (MARK) (Homo sapiens, UniProt Q9P0L2)
Description: as §1, §2, §3, §4, §5, §6

SGK (SGK1) = target: T2, SGK (SGK1) (Homo sapiens, UniProt O00141)
T2 sequence (O00141 1-431): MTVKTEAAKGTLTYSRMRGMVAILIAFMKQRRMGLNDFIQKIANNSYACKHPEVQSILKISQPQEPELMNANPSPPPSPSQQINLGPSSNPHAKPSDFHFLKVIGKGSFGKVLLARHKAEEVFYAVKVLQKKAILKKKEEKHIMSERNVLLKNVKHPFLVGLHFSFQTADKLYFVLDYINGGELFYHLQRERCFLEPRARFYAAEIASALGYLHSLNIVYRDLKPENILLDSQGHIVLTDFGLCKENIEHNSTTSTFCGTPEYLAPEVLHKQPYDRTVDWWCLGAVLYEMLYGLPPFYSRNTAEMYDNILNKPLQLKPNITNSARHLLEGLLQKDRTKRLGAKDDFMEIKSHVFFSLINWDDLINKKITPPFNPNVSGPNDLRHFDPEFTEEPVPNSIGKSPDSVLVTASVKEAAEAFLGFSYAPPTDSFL
Description: as §1, §2, §3, §4, §5, §6

RPS6KB1 (p70S6K) = RPS6KB1 (p70S6K) (Homo sapiens, UniProt P23443)
TBK1 = target: T3, TBK1 (Homo sapiens, UniProt Q9UHD2)
T3 sequence (Q9UHD2 1-729): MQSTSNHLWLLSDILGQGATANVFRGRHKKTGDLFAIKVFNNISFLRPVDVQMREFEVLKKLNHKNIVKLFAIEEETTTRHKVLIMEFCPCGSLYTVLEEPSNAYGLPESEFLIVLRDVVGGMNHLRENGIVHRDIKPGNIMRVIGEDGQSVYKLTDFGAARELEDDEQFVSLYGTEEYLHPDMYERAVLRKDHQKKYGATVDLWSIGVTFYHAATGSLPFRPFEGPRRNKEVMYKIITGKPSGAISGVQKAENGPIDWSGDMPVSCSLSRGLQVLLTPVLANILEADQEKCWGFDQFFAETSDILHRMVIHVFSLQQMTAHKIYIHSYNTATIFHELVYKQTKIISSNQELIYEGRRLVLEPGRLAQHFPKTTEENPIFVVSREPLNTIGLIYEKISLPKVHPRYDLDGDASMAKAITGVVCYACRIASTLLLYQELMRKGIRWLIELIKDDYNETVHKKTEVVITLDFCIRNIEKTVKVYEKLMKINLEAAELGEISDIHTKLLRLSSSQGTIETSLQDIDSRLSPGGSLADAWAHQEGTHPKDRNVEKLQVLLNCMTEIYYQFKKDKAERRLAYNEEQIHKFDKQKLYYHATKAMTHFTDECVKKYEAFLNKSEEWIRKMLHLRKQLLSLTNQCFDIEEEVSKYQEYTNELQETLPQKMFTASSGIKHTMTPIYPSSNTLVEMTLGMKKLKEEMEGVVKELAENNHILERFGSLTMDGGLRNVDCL

MAPK1 (ERK2) = MAPK1 (ERK2) (Homo sapiens, UniProt P28482)
Description: as §1, §2, §3, §4, §5, §6

PRKCZ (PKC zeta) = target: T4, PRKCZ (PKC zeta) (Homo sapiens, UniProt Q05513)
T4 sequence (Q05513 1-592): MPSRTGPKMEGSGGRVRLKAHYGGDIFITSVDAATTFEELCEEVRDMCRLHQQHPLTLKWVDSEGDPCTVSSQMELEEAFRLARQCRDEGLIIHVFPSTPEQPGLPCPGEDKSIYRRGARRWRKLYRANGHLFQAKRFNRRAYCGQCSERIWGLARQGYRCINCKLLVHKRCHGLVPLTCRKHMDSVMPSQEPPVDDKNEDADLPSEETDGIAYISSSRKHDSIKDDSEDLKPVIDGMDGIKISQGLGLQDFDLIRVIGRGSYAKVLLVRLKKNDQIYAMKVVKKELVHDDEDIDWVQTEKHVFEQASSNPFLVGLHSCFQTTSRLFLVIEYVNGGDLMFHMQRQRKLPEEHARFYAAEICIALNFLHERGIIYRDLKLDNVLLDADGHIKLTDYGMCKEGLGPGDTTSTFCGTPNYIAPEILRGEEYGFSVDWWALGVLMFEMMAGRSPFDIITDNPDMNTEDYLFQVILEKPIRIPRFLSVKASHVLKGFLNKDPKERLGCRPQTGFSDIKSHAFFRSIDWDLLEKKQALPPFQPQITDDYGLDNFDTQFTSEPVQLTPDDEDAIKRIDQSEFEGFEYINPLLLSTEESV
Description: as §1, §2, §3, §4, §5, §6

Sequence of RPS6KA3 (RSK2) (P51812 whole entry): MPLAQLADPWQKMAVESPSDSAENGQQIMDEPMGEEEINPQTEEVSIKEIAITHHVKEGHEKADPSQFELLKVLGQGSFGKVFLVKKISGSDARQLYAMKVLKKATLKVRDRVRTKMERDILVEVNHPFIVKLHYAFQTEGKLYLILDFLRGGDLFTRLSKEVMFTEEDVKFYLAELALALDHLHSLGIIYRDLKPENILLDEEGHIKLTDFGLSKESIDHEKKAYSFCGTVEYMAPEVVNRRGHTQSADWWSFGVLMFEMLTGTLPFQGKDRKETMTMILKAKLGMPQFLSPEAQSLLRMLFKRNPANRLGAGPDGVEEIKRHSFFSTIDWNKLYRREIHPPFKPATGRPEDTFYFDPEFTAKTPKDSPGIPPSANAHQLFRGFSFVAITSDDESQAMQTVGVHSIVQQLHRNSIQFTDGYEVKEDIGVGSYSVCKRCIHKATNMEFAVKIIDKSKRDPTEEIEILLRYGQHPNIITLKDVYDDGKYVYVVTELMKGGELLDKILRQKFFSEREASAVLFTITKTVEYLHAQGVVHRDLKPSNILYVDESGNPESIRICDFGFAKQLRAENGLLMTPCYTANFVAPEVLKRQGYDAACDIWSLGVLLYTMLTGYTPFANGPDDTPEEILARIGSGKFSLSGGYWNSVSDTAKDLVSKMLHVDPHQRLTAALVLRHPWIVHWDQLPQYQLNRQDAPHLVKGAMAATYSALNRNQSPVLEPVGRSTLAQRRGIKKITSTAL
Sequence of EGFR (ErbB1) (P00533 25-1210): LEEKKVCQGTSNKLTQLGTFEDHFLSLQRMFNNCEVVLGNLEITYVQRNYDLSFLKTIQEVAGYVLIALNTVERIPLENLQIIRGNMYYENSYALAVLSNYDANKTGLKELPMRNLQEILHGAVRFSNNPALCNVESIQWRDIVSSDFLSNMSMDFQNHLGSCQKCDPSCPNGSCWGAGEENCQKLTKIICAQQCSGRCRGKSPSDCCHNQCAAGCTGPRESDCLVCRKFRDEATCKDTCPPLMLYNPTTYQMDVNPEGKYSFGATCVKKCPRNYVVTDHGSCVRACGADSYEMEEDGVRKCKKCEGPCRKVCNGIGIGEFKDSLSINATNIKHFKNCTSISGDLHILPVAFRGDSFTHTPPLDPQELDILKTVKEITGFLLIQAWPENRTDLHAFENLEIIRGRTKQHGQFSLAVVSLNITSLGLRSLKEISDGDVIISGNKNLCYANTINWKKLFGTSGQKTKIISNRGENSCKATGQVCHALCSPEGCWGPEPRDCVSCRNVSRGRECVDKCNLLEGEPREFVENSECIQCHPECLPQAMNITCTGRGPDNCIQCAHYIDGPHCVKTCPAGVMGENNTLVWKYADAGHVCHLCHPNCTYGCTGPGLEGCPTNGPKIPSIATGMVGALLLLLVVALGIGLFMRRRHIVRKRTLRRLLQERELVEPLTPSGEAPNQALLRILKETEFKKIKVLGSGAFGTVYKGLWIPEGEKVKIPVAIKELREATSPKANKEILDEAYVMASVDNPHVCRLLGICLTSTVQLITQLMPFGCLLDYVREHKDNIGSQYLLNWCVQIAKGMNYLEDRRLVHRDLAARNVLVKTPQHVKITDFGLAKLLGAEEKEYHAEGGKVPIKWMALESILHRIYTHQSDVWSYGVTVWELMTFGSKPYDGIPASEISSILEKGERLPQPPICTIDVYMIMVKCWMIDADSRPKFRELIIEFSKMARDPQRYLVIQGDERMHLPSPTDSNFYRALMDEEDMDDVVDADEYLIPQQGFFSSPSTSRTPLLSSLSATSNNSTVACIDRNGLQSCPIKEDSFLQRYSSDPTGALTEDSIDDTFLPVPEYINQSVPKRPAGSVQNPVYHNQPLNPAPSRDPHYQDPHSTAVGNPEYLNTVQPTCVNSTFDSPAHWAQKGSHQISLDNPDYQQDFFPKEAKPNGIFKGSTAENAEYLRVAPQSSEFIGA
Sequence of MARK1 (MARK) (Q9P0L2 whole entry): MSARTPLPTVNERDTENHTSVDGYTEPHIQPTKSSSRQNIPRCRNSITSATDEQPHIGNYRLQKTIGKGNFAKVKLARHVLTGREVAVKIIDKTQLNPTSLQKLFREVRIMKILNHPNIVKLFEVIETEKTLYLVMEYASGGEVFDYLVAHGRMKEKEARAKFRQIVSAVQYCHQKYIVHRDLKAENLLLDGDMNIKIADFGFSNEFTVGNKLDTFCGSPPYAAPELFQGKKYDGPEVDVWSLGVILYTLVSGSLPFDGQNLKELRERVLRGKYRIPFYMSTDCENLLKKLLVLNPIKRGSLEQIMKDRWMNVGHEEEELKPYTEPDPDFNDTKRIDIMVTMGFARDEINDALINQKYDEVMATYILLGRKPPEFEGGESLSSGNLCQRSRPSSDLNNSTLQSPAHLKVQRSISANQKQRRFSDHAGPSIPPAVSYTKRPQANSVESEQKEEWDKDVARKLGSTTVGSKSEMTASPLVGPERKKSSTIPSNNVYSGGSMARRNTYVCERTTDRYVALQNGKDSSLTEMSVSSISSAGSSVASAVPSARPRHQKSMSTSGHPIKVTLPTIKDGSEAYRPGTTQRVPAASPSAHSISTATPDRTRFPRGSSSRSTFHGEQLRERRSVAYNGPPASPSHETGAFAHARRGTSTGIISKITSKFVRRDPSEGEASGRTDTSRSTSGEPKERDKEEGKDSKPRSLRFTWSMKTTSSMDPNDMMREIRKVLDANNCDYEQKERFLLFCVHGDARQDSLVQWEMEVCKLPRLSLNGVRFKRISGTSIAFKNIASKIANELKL
Sequence of RPS6KB1 (p70S6K) (P23443 whole entry): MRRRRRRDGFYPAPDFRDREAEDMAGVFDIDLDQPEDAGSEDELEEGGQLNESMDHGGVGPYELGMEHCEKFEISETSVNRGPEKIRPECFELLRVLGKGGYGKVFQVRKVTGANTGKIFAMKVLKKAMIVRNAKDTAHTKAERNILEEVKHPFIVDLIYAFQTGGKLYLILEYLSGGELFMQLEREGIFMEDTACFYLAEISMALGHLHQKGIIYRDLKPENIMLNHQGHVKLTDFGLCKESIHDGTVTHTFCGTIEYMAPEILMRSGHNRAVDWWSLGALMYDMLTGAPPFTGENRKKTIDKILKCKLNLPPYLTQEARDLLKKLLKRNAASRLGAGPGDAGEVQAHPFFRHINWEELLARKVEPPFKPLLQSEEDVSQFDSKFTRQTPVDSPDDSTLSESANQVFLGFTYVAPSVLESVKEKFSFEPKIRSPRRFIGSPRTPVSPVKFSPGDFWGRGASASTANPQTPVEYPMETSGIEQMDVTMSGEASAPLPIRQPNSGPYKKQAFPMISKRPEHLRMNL
Sequence of JAK2 (O60674 whole entry): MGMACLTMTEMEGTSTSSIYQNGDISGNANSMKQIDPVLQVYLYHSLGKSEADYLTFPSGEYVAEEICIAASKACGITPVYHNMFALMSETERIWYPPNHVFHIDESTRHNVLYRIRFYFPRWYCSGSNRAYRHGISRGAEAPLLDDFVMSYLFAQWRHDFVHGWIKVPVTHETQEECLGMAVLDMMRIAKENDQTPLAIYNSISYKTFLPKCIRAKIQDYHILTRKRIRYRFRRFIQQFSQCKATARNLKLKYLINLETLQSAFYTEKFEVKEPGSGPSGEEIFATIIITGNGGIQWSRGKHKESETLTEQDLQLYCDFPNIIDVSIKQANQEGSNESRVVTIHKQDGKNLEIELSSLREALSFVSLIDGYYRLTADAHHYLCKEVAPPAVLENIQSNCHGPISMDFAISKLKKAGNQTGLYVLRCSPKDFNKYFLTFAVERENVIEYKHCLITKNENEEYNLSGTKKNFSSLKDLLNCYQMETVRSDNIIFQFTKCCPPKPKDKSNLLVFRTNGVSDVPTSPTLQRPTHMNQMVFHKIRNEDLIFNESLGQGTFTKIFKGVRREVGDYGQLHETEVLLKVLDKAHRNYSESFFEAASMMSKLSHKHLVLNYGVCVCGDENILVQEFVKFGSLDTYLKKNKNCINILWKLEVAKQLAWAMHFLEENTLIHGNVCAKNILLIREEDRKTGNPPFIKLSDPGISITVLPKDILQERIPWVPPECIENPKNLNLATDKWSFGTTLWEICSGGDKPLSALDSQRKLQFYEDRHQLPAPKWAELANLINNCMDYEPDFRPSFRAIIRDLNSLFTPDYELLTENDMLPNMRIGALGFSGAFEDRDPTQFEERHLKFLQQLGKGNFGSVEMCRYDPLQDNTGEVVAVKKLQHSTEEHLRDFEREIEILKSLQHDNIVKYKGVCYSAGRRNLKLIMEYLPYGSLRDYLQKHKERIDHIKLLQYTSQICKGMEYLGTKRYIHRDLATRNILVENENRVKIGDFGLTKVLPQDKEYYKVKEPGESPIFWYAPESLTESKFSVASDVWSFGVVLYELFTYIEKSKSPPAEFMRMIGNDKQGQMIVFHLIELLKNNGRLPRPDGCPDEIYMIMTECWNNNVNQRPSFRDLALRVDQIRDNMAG
Sequence of MAPK1 (ERK2) (P28482 whole entry): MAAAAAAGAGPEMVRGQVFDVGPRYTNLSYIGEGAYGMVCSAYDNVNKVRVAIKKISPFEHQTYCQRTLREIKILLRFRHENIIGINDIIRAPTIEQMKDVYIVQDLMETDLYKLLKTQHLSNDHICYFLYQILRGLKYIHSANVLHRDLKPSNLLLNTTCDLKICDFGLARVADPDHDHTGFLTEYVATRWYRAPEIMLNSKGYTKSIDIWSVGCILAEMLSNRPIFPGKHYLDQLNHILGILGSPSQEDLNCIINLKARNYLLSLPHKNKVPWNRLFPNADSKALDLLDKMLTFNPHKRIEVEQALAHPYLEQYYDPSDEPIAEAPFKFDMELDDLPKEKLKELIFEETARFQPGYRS

SMILES	inhibition at 1 µM (FGFR1)	inhibition at 1 µM (RPS6KA3 (RSK2))	inhibition at 1 µM (EGFR (ErbB1))	inhibition at 1 µM (PRKCE (PKC epsilon))	inhibition at 1 µM (JAK2)	inhibition at 1 µM (MARK1 (MARK))	inhibition at 1 µM (SGK (SGK1))	inhibition at 1 µM (RPS6KB1 (p70S6K))	inhibition at 1 µM (TBK1)	inhibition at 1 µM (MAPK1 (ERK2))	inhibition at 1 µM (PRKCZ (PKC zeta))
C=CC(=O)Nc1cccc(C(=O)NC2CCN(Cc3ccc(-c4nc5cc[nH]c(=O)c5cc4-c4ccccc4)cc3)CC2)c1 [30b]	10%	30%	1%	27%	16%	5%	29%	8%	5%	13%	-4%
C=CC(=O)Nc1cc(NC(=O)NC2CCN(Cc3ccc(-c4nc5cc[nH]c(=O)c5cc4-c4ccccc4)cc3)CC2)ccc1Cl [compound 27]	24%	23%	2%	11%	0%	7%	21%	29%	3%	11%	-14%
C=CC(=O)Nc1ccc2c(c1)n(C1CCN(Cc3ccc(-c4nc5cc[nH]c(=O)c5cc4-c4ccccc4)cc3)CC1)c(=O)n2C [24b]	7%	14%	-8%	12%	2%	2%	19%	32%	4%	2%	-3%
